Data on 23 molecules can be found in patent US11077109B2, “Compounds having antibacterial activity and methods of use” (The Trustees of Princeton University, priority 2017, dated 2021).

For assay [1], the system named is E. coli MC4100 imp4213 (imp) strain. Description: MIC of lead compounds on the imp strain, microdilution method in 96-well plates. It counts as cell-based. The text has this: With the aim of finding antibiotics with novel MOAs, an unbiased whole-cell screening approach was applied. To include antibiotics that target either gram-negative and gram-positive bacteria, compounds were screened that inhibited growth of the E. coli MC4100 imp4213 (imp) strain, which has a compromised OM that makes it permeable to antibiotics that would otherwise not penetrate the gram-negative lipolysaccheride (LPS). […] unique compounds spanning 5 libraries were screened, with 32,343 compounds represented once, 923 duplicates, 114 triplicates, 12 quadruplicates and 2 compounds represented five times, all at the concentration of 50 uM in DMSO.
From the 186 unique hits, 32 lead compounds were selected that either had not been identified as antibiotics or had unknown or ambiguous MOAs for further investigation. To understand the potency of these compounds, their minimum inhibitory concentration (MIC) was measured on the imp strain using the microdilution method in 96-well plates.
Background: Dilution methods test growth across graded concentrations, often in twofold steps.

The subject of assay [2] is methicillin resistant S. aureus (NARSA NRS384). Description: MIC against panel of clinically important pathogens: methicillin resistant S. aureus. It counts as cell-based. As to conditions: Staphylococcus aureus, read-out: MIC (inhibiting concentration), methicillin resistant S. aureus. How it is done: (§1) In an effort to understand how effective these 8, possibly novel, antibiotics might be in treating infections, their MICs against a panel of 22 clinically important pathogens shown in Table II were measured. In addition, the MICs of 3 other compounds of interest, rivaroxaban, AZT, and triflupromazine, were measured which were associated with specific drug classes. Of particular interest, ONO-RS-82 inhibited C. difficile and N. gonorrhoeae with at concentrations of 2 μg/ml and 0.25 μg/ml respectively.

Assay [3] has as its system Neisseria gonorrhoeae CCUG57598. Kind of assay: MIC against panel of clinically important pathogens: N. gonorrhoeae. Particulars: read-out: MIC (inhibiting concentration), N. gonorrhoeae. It counts as cell-based. Here is the method:
as §1

In assay [4] the test system is Enterococcus faecium ATCC BAA-2320. Kind of assay: MIC against panel of clinically important pathogens: E. faecium. As to conditions: ATCCBAA2320, read-out: MIC (inhibiting concentration), E. faecium. It counts as cell-based. Here is the method: as §1
The subject of assay [5] is Clostridium difficile ATCC BAA-1875. Description: MIC against panel of clinically important pathogens: C. difficile. It counts as cell-based. Particulars: Clostridioides difficile, ATCCBAA1875, read-out: MIC (inhibiting concentration), C. difficile. Here is the method: as §1
Assay [6] concerns folate metabolites in NCM 3722 E. coli cells. Description: Metabolomics and mass spectrometry of folate metabolites. The class given is cell-based.
The test system of assay [7] is NCM 3722 E. coli cells. Description: MIC on NCM 3722 E. coli. It counts as cell-based. As to conditions: NCM 3722 cells, Gutnick Minimal Media.
For assay [8], the system named is Cpx envelope stress response (cpxP). Description: cpxP expression (Cpx envelope stress response activation). The class given is cell-based, E. coli MC4100 wild type. As to conditions: drug at one to one-half the MIC (AGAs and chloramphenicol 5 μg/ml, triflupromazine 50 μg/ml). The text has this: Thus, that the three AGAs fell into a distinct neighborhood not similar to the other ribosome-targeting antibiotics was unsurprising.

In assay [9] the test system is B. subtilis essential gene knockdown library (folC, folA). It counts as cell-based. The text has this:
The classical method of identifying the molecular target of an antibiotic is by selecting for antibiotic resistant mutants. However, SCH resistant mutants were not easily identified. A potential reason for this may be that SCH has multiple targets. To probe this hypothesis, a B. subtilis essential gene knockdown library was screened to select for strains that were sensitized to SCH (FIG. 12A). This library consists of ˜300 individual strains where the expression of each essential gene is repressed 3-fold by CRISPR interference (CRISPRi). This library was pinned onto agar plates containing a sub-MIC dose of SCH and the relative fitness of each gene was measured (FIG. 12A). […]

In assay [10] the test system is ΔthyA lptD4213 cells. Kind of assay: Susceptibility of ΔthyA cells. It counts as cell-based, E. coli. As to conditions: supplemented with exogenous Thymine.
Procedure: To test this hypothesis, the membrane potential and membrane permeability of lptD4213 cells were measured using the fluorescent dyes, DIOC2(3) and TO-PRO-3, and flow cytometry. DIOC2(3) is a cationic dye that accumulates in the cytoplasm of cells with an active membrane potential and shifts its fluorescence from red to green. The dye also stains the membrane of the cells in green and as a result the ratio of the red to green signals can provide a morphology and size independent measure of membrane potential (FIG. 14B). TO-PRO-3 is a nucleic acid stain that only stains cells with compromised membranes (FIG. 14B).
The mark [11] stands for this setting: E. coli MC4100 imp4213 (imp) strain, microdilution.

≈ marks a conversion by molar mass, not a printed value. Counter-ions that a name gives are not always drawn.

In the case of `CCCCCCCCCCCCCCC[C@H](O)[C@H](N)CO` (racemic) [DL-erythro-dihydrosphingosine], in assay [1] (setting [11]), the MIC came to 12.5 µM.
With `CC[n+]1c(C=CC=C2N(C)c3ccccc3C2(C)C)sc2ccccc21` [AC-93253 iodide, 2-[3-(1,3-dihydro-1,3,3-trimethyl-2H-indol-2-ylidene)-1-propenyl]-3-ethyl-benzothiazolium iodide], in assay [1] (Escherichia coli), the MIC is 6.25 µM.
Take `CCCCC(CC)CNC(=N)NC(=N)NCCCCCCNC(=N)NC(=N)NCC(CC)CCCC` (stereo not shown) [Alexidine hydrochloride]: in assay [1] (Escherichia coli), the MIC was 12.5 µM.
For `CC(=O)OC[C@H]1O[C@@H]([S-])[C@H](OC(C)=O)[C@@H](OC(C)=O)[C@@H]1OC(C)=O.CCP(CC)CC.[Au+]` [Auranofin], the MIC in assay [1] (setting [11]) was 6.25 µM.
Take `O=[N+]([O-])C(Br)(CO)CO` [Bronopol]: in assay [1] (Escherichia coli), the MIC was 25 µM.
With `Clc1ccc(C(c2ccc(Cl)cc2)n2cc[n+](CC(OCc3ccc(Cl)cc3Cl)c3ccc(Cl)cc3Cl)c2)cc1.[Cl-]` (stereo not shown) [Calmidazolium chloride, 1-[bis(4-Chlorophenyl)methyl]-3-[2-(2,4-dichlorophenyl)-2-(2,4-dichlorobenzyloxy)ethyl]-1H-imidazolium chloride], the MIC was below 1 µg/mL in assay [2], below 1 µg/mL in assay [3], below 1 µg/mL in assay [4] and 3.12 µM in [1] (Escherichia coli).
Turning to `Cc1nc2ccccc2n1Cc1ccc(Cl)cc1` [Chlormidazole], the MIC in assay [1] (Escherichia coli) turned out to be 25 µM.
With `Oc1ccc(Cl)cc1Cc1cc(Cl)ccc1O` [Dichlorophen], the MIC in assay [1] (Escherichia coli) was found to be 12.5 µM.
Same read-out and setting: in the case of `O=c1[nH]c(=O)n([C@H]2C[C@H](O)[C@@H](CO)O2)cc1F` [Floxuridine] it was 6.25 µM; in that of `O=C1Nc2ccc(I)cc2C1=Cc1cc(Br)c(O)c(Br)c1` [GW5074, 3-(3,5-dibromo-4-hydroxybenzyliden)-5-iodo-1,3-dihydroindol-2-one], 6.25 µM.
Still for that read-out and setting: in the case of `O=S(=O)(NCCNCC=Cc1ccc(Br)cc1)c1cccc2cnccc12` [H 89 dihydrochloride, N-[2-(p-Bromocinnamylamino)ethyl]-5-isoquinolinesulfonamide dihydrochloride] it was 12.5 µM; in that of `CC[n+]1c(-c2ccccc2)c2cc(N)ccc2c2ccc(N)cc21` [Homidium bromide], 25 µM.
Still for that read-out and setting: under `CC(=O)[C@]1(O)Cc2c(O)c3c(c(O)c2[C@@H](O[C@H]2C[C@H](N)[C@H](O)[C@H](C)O2)C1)C(=O)c1ccccc1C3=O` [Idarubicin] stands 25 µM.
In the case of `CCCCCc1ccc(C=CC(=O)Nc2cc(Cl)ccc2C(=O)O)cc1` [ONO-RS-082, 2-(p-amylcinnamoyl)amino-4-chlorobenzoic acid], the MIC was determined as 0.25 µg/mL (≈ 0.672 µM) in assay [3], 2 µg/mL (≈ 5.38 µM) in assay [5] and 3.12 µM in [1] (Escherichia coli).
Turning to `O=C(NC[C@H]1CN(c2ccc(N3CCOCC3=O)cc2)C(=O)O1)c1ccc(Cl)s1` [Rivaroxaban, (S)-5-Chloro-N-((2-oxo-3-(4-(3-oxomorpholino)phenyl)oxazolidin-5-yl)methyl)thiophene-2-carboxamide], the MIC in [1] (Escherichia coli) came out at 0.05 µM.
`CC(C)c1ccc(Cn2ccc3c4c(N)nc(NC5CC5)nc4ccc32)cc1` [SCH 79797, N3-Cyclopropyl-7-[[4-(1-methylethyl)phenyl]methyl]-7H-pyrrolo[3,2-F]quinazoline-1,3-diamine dihydrochloride]: the “dihydrofolate (DHF) levels versus normal DHF levels” value in [6] (1× MIC for 15 minutes) was “approximately 10 fold”. Further, the “MIC (1× MIC)” value in assay [7] is 31.25 µM. Besides, the MIC in assay [1] (Escherichia coli) was 25 µM.
Take `COc1cccc(C2(O)CCCCC2CN(C)C)c1` (stereo not shown) [Tramadol hydrochloride]: in assay [1] (Escherichia coli), the MIC was found to be 6.25 µM.
For the molecule `CN(C)CCCN1c2ccccc2Sc2ccc(C(F)(F)F)cc21` [Triflupromazine, N,N-dimethyl-3-[2-(trifluoromethyl)phenothiazin-10-yl]propan-1-amine], the cpxP expression entry in assay [8] was “induced cpxP expression”. Also, the MIC in [1] (Escherichia coli) was determined as 25 µM.
As for `COc1cc(Cc2cnc(N)nc2N)cc(OC)c1OC` [Trimethoprim], the “sensitivity of dihydrofolate reductase (folA) knockdown” value in [9] (sub-MIC / sub-lethal dose) was “sensitized”. Further, the “sensitivity of dihydrofolate synthetase (folC) knockdown” value in assay [9] (sub-MIC / sub-lethal dose on agar, confirmed in liquid) is recorded as “sensitized”. In addition, the “metabolic response characteristic of FolA inhibition” value in assay [6] (NCM 3722 cells) is “also observed”. Further, the “susceptibility of ΔthyA lptD4213 cells” value in assay [10] is “resistant to high levels”.
`CN[C@@H]1[C@@H](O[C@H]2O[C@H](CO)[C@@H](N)[C@H](O)[C@H]2O)OC2C[C@@H](N)[C@@H](O[C@H]3[C@H](O)[C@@H](O)[C@H](N)C[C@@H]3N)OC2[C@@H]1O` (stereo partly shown) [apramycin]: in [8], the cpxP expression entry is “induced cpxP expression”.
On the same count and under the same terms, under `O=C(N[C@H](CO)[C@H](O)c1ccc([N+](=O)[O-])cc1)C(Cl)Cl` [chloramphenicol] stands “did not”.
Bleomycin: the MIC in assay [1] (setting [11]) is 0.1 µM.
On to gentamicin, for which the cpxP expression result in assay [8] is “induced cpxP expression”.
